Series [1] addresses Ribosomal protein S6 kinase beta-1 (Homo sapiens, UniProt P23443, T412E). Format: cell-based, Sf21.
The target of series [2] is RAC-alpha serine/threonine-protein kinase (Homo sapiens, UniProt P31749).
The target of series [3] is Aurora kinase B/Inner centromere protein (Homo sapiens, UniProt Q96GD4). Briefly: biochemical. The class given is cell-based, Sf21.
Series [4] can be described thus: cells. Format: cell-based. The conditions noted are these: Homo sapiens, MDA-MB-468.
Series [5] has as its system MDA-MB-468. The series is described as follows: cells. The conditions noted are these: Homo sapiens, MDA-MB-468, 96 h. Format: functional, cell-based.
Description: Antiproliferative activity against human MDA-MB-468 cells incubated for 96 hrs by luminescence method
Series [6] has as its target Cytochrome P450 2C9 (Homo sapiens, UniProt P11712).
Description: Inhibition of CYP2C9 (unknown origin)
For series [7] the following is noted: buffer, pH 7.4.
Description: Thermodynamic solubility of compound at pH 7.4
For series [8] the following is noted: mouse, microsomes.
Description: Intrinsic clearance in mouse microsomes
The conditions of series [9]: rat, microsomes.
Description: Intrinsic clearance in rat microsomes
For series [10] the following is noted: human, microsomes.
Description: Intrinsic clearance in human microsomes
A short description of series [11]: in vivo. The note with it: mouse.
Series [12] in a line: in vivo. The note with it: mouse. This is another data set of the same source.
A short description of series [13]: in vivo. The conditions noted are these: mouse, po.
Description: Oral bioavailability in mouse
Series [14] is described as follows: in vitro. The note with it: human, Caco-2.
Series [15] can be described thus: in vitro. The conditions noted are these: mouse, plasma.
Description: Protein binding in mouse plasma assessed as unbound fraction
A short description of series [16]: in vitro. The note with it: rat, plasma.
Description: Protein binding in rat plasma assessed as unbound fraction
Series [17] in a line: in vitro. The conditions noted are these: human, plasma.
Description: Protein binding in human plasma assessed as unbound fraction
In series [18] the target is hERG (KCNH2) (Homo sapiens, UniProt Q12809). The series is described as follows: in vitro.
Description: Inhibition of human ERG at 10 uM relative to control
The nature of series [19]: in vivo. The note with it: rat.
Description: Volume of distribution at steady state in rat
Series [20] can be described thus: in vivo. The conditions noted are these: rat. The source holds these as a separate data set.
Series [21] in a line: in vivo. The conditions noted are these: rat, po.
Description: Oral bioavailability in rat
Series [22] is described as follows: in vivo. The note with it: mouse. The source holds these as a separate data set.
Description: Volume of distribution at steady state in mouse
Series [23] in a line: in vivo. The conditions noted are these: rat. The source holds these as a separate data set.
Series [24] can be described thus: in vivo. The conditions noted are these: dog.
A short description of series [25]: in vivo. The conditions noted are these: dog. The source holds these as a separate data set.
A short description of series [26]: in vivo. The note with it: dog, po.
Description: Oral bioavailability in dog
Series [27] is described as follows: in vivo. The conditions noted are these: dog. The source holds these as a separate data set.
Description: Volume of distribution at steady state in dog
A short description of series [28]: in vivo. The note with it: cynomolgus monkey.
Description: Clearance in cynomolgus monkey
A short description of series [29]: in vivo. The note with it: cynomolgus monkey. This is another data set of the same source.
Description: Half life in cynomolgus monkey
Series [30] is described as follows: in vivo. The note with it: cynomolgus monkey, po.
Description: Oral bioavailability in cynomolgus monkey
The nature of series [31]: in vivo. The conditions noted are these: cynomolgus monkey. The source holds these as a separate data set.
Description: Volume of distribution at steady state in cynomolgus monkey
The nature of series [32]: physchem. The conditions noted are these: octanol/water.
Description: Lipophilicity, logP of compound
Series [33] in a line: in vitro. The note with it: human, Caco-2. The source holds these as a separate data set.

Bounds are passed on as bounds.

Chain of RAC-alpha serine/threonine-protein kinase (P31749 whole entry): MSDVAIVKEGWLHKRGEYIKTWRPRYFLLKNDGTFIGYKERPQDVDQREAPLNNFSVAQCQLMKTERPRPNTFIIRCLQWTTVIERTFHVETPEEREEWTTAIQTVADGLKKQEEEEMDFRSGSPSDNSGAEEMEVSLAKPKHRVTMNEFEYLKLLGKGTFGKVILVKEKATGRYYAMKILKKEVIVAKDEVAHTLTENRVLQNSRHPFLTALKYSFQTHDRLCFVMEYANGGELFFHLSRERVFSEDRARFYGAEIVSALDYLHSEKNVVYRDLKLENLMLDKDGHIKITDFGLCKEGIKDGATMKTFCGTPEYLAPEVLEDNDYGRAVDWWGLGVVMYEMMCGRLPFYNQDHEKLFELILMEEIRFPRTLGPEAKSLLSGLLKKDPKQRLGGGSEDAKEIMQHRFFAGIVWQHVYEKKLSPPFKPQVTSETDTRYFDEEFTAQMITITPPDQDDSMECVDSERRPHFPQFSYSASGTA
Chain of Aurora kinase B/Inner centromere protein (Q96GD4 whole entry): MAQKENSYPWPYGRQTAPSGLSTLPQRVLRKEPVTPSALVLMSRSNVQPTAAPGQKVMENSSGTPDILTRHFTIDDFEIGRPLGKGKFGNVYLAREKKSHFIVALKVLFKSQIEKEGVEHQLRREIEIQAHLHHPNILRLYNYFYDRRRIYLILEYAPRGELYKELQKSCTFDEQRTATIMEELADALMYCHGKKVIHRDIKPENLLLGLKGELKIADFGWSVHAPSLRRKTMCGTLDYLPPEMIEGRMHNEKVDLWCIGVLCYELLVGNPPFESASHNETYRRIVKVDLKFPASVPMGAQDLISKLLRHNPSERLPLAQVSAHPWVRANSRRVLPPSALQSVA
Chain of Aurora kinase B/Inner centromere protein (Q9NQS7 whole entry, further chain): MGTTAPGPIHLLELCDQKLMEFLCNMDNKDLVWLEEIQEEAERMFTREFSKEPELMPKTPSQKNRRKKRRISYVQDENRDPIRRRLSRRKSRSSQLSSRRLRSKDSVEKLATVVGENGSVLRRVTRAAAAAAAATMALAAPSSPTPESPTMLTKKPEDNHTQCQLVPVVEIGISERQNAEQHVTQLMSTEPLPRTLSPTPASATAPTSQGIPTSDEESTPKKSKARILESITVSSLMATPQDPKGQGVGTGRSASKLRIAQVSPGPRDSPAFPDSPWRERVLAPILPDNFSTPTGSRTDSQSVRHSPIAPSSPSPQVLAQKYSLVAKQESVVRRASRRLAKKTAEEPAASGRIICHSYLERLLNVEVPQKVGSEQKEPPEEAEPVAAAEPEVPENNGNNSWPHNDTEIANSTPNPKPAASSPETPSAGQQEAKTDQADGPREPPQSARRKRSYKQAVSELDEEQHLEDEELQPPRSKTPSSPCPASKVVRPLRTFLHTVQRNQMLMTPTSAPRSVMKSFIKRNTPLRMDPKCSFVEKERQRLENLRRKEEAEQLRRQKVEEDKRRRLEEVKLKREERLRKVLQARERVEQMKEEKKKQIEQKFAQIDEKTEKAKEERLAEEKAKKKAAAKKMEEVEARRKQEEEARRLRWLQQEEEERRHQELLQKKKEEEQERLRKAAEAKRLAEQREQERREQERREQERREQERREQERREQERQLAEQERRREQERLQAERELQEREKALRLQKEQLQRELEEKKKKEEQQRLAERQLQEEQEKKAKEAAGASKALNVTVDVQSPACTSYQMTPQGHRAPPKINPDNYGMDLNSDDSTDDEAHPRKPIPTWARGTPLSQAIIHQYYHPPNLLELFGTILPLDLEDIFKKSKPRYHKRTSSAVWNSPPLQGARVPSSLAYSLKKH
Chain of Ribosomal protein S6 kinase beta-1 (P23443 whole entry T412E): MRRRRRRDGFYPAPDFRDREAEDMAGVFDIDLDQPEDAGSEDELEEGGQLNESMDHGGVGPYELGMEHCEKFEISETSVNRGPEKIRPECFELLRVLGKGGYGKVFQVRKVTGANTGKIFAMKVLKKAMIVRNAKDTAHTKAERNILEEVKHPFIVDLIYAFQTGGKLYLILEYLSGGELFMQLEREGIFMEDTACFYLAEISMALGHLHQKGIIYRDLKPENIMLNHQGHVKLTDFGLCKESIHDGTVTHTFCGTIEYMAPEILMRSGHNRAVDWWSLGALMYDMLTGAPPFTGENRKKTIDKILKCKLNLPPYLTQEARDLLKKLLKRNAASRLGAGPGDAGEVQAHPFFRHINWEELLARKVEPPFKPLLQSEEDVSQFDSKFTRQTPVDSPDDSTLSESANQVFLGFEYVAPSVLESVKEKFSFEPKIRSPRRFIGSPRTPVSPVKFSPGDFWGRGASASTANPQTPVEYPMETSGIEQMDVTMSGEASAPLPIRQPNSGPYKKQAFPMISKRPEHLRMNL
Chain of hERG (KCNH2) (Q12809 whole entry): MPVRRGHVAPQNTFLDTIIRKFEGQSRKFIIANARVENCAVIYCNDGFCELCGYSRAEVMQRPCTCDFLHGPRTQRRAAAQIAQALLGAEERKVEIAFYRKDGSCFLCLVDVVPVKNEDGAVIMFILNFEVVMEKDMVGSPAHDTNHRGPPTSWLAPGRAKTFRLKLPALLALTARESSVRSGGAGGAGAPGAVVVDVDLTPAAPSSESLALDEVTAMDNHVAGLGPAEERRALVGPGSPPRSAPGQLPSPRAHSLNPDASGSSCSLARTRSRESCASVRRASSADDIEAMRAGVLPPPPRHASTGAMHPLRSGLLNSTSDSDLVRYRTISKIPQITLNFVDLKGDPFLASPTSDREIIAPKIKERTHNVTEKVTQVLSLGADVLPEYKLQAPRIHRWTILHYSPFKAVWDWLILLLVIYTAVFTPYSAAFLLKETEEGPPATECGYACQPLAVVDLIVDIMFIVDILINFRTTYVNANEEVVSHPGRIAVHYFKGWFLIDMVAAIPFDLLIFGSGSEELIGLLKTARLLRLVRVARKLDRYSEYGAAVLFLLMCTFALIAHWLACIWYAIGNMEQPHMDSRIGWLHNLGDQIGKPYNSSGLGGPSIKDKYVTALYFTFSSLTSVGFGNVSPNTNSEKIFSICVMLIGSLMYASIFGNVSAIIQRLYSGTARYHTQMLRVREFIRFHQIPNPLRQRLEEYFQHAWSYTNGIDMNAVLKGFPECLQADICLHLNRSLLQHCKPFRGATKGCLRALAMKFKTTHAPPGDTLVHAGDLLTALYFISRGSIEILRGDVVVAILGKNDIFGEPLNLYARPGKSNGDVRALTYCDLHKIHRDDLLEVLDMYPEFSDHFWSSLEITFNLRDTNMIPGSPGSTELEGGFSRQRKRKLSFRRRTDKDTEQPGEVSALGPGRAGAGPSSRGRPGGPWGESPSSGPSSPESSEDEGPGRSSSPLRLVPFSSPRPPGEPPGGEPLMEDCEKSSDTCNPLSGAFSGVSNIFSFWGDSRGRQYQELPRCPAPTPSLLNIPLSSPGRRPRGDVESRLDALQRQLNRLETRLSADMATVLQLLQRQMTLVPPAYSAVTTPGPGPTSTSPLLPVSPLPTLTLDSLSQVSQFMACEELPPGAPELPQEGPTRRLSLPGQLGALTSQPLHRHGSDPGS
Chain of Cytochrome P450 2C9 (P11712 whole entry): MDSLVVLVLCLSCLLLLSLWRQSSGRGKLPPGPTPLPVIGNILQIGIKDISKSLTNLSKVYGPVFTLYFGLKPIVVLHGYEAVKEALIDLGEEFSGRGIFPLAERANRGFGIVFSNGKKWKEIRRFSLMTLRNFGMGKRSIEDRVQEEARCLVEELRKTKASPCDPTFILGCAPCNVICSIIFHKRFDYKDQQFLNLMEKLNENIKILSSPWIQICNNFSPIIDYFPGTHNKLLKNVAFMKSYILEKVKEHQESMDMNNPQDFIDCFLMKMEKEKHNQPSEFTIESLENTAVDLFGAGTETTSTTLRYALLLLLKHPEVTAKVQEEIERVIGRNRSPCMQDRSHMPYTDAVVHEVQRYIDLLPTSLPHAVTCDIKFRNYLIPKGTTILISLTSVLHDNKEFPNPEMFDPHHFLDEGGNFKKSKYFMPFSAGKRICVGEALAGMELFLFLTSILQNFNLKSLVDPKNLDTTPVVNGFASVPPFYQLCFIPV

On to `CNC[C@@H](Nc1nc(C(F)(F)F)nc2c(C(N)=O)cccc12)c1cccc(F)c1`, for which the 50% inhibitory concentration (IC50) in [1] was 0.03 µM; in series [2], 0.4 µM; in series [3], greater than 1 µM.
Take `NC(=O)c1cccc2c(N[C@H](CN3CCC3)c3ccccc3)ncnc12`: the values for the IC50 in series [1] and in [4] were 0.0062 µM and 0.0016 µM, respectively.
In series [1], `CN(Cc1ccccc1)c1ncnc2c(C(N)=O)cccc12` came in with an IC50 of 0.973 µM.
As for `CNC[C@@H](Nc1nc(C)nc2c(C(N)=O)cccc12)c1cccc(F)c1`, the IC50 in series [1] stood at 0.002 µM; in [2], 0.044 µM; in series [4], 0.072 µM; in [3] it was 0.006 µM.
The matching figures for `NC(=O)c1cccc2c(N[C@H](CN3CCCC3)c3cccc(F)c3)ncnc12`: 0.065 µM, 0.563 µM, greater than 1 µM and 0.045 µM.
In the case of `NC(=O)c1cccc2c(NCc3ccc4c(c3)OCO4)nccc12`, the half-maximal inhibitory concentration (IC50) in [1] and in [2] was greater than 10 µM each time.
In turn, `NC(=O)c1cccc2c(NCc3ccc4c(c3)OCO4)ccnc12` showed an IC50 in series [2] greater than 10 µM.
`NC(=O)c1cccc2c(N[C@H](CN3CCCC3)c3ccccc3)ncnc12` yielded an IC50 in series [4] of 0.00917 µM.
In the case of `CNC[C@@H](Nc1ncnc2c(C(N)=O)cccc12)c1cccc(F)c1`, the IC50 in series [2] was found to be 0.004 µM; in series [4] it was 0.045 µM; in [3] it was 0.004 µM; in series [5], 0.197 µM; in [6], 3.6 µM. The molecule also displayed a Therm_solubility in [7] of 64 mg/mL. For the same molecule, the CL in [8] came out at 11 mL/min; in series [9] it was 29 mL/min; in series [10], 21 mL/min. The clearance in [11] was 29 mL/min/kg. For the same molecule, in [12], the half-life is 2.1 h. The bioavailability in [13] stood at 33%. The molecule further gave a Papp A→B in series [14] of 16 ×10⁻⁶ cm/s. The results for the fraction unbound in series [15], in series [16] and in [17] were 0.22, 0.23 and 0.15, respectively. Moreover, the inhibition at 10 µM in series [18] was 26%.
In the case of `NC(=O)c1cccc2c(N[C@H](CN3CCC3)c3ccc(C(F)(F)F)cc3)ncnc12`, the results for the IC50 in series [1] and in [4] were 0.001 µM and 0.028 µM, respectively.
As to `CNCC(Nc1ncnc2c(C(N)=O)cccc12)c1cccc(F)c1` (racemic), the results for the IC50 in series [2], in [4] and in series [3] were 0.015 µM, 0.025 µM and 0.009 µM, respectively.
Regarding `CNC(=O)c1cccc2c(NCc3ccc4c(c3)OCO4)ncnc12`, the IC50 in series [1] is greater than 10 µM.
As to `NC(=O)c1cccc2c(N[C@H](CN3CCC3)c3ccc(Cl)c(C(F)(F)F)c3)ncnc12` [RUPITASERTIB], the IC50 turned out to be 0.0011 µM in [1], 0.004 µM in series [2], 0.011 µM in [4] and 0.17 µM in series [3]. In addition, the results for the CL in [8], in series [9] and in [10] were 30 mL/min, 37 mL/min and 31 mL/min, respectively. Also, the Vd was found to be 17.6 L/kg in [19], 9.88 L/kg in series [22], 7.43 L/kg in series [27] and 14.3 L/kg in series [31]. Further, the half-life in [20] was 3.9 h; in series [12], 4.3 h; in [25], 4.1 h; in series [29] it was 10.1 h. The bioavailability in [21] was found to be 15%; in series [13], 43%; in series [26], 36%; in series [30] it was 44%. For the same molecule, the clearance in series [11] was 25 mL/min/kg; in [23], 51.7 mL/min/kg; in [24], 20 mL/min/kg; in [28], 15 mL/min/kg. The Papp A→B in series [14] stood at 12.1 ×10⁻⁶ cm/s. Further, the fraction unbound was determined as 0.03 in series [15], 0.05 in [16] and 0.05 in series [17]. The logP in series [32] is 2.4. Also, the efflux ratio in series [33] amounted to 1.5.
Take `NC(=O)c1cccc2c(N[C@H](CN3CCC3)c3ccc(F)cc3)ncnc12`: the IC50 in series [1] came out at 0.008 µM; in series [4], 0.103 µM.
In [1], `CN(C)C(=O)c1cccc2c(NCc3ccc4c(c3)OCO4)ncnc12` registered an IC50 greater than 10 µM.
Take `CCc1nc(N[C@H](CNC)c2cccc(F)c2)c2cccc(C(N)=O)c2n1`: the 50% inhibitory concentration (IC50) was determined as 0.002 µM in series [1], 0.212 µM in [2], 0.183 µM in series [4] and 0.051 µM in series [3].
As to `NC(=O)c1cccc2c(N[C@H](CN3CCC3)c3ccc(F)c(F)c3)ncnc12`, the IC50 in [1] worked out at 0.001 µM; in [2] it was 0.004 µM; in [4], 0.074 µM.
Consider `NC(=O)c1cccc2c(N[C@H](CN3CCC3)c3ccc(Cl)c(F)c3)ncnc12`, for which the concentration for half-maximal inhibition (IC50) in [1] stood at 0.002 µM; in [2], 0.01 µM; in series [4], 0.043 µM; in series [3] it was 0.075 µM.
In the case of `NC(=O)c1cccc2c(NCc3ccc4c(c3)OCO4)ncnc12`, in series [2], the IC50 was greater than 10 µM.
On to `NC(=O)c1cccc2c(N[C@H](CN3CCC3)c3cccc(Cl)c3)ncnc12`, for which the values for the IC50 in series [1], in series [2] and in [4] were 0.0013 µM, 0.014 µM and 0.025 µM, respectively.
Consider `COC(=O)c1cccc2c(NCc3ccc4c(c3)OCO4)ncnc12`, for which the IC50 in series [1] was greater than 10 µM.
For the molecule `CNC[C@H](Nc1ncnc2c(C(N)=O)cccc12)c1cccc(F)c1`, the IC50 in series [4] was 0.702 µM.
Regarding `NC(=O)c1cccc2c(N[C@H](CN3CCC3)c3cccc(F)c3)ncnc12`, the results for the IC50 in series [1] and in series [4] were 0.0024 µM and 0.076 µM, respectively.
In the case of `NC(=O)c1cccc2c(N[C@H](CN3CCC3)c3ccc(F)c(C(F)(F)F)c3)ncnc12`, the IC50 in series [1] came to 0.0029 µM; in [2], 0.006 µM; in series [4], 0.043 µM; in [3], 0.233 µM.
`CNCCC(Nc1ncnc2c(C(N)=O)cccc12)c1ccccc1` (stereo unspecified): in [1], the midpoint of inhibition, the IC50, lay at 0.16 µM.
For `NC(=O)c1cccc2c(N[C@H](CN3CCC3)c3cccc(C(F)(F)F)c3)ncnc12`, the IC50 in series [2] was found to be 0.006 µM; in series [4] it was 0.056 µM.
For the molecule `O=C(O)c1cccc2c(NCc3ccc4c(c3)OCO4)ncnc12`, in series [1], the IC50 was greater than 10 µM.
The same measure, in the same setting: the result for `c1ccc(CNc2ncnc3ccccc23)cc1` reads greater than 10 µM.

The record behind these values is ChEMBL document CHEMBL4828767, “Identification of Clinical Candidate M2698, a Dual p70S6K and Akt Inhibitor, for Treatment of PAM Pathway-Altered Cancers” (J Med Chem, 2021).
